Results as given in PMC6409689, “Characteristics of the First Protein Tyrosine Phosphatase with Phytase Activity from a Soil Metagenome” (Genes, 2019).

Experiments:
Pho16B = Pho16B (uncultured organism, UniProt A0A3G1QTG4); assay: phosphate release, ammonium molybdate assay at […] nm; Michaelis-Menten fit; settings: pH 5.6, 45 °C; printed kcat, Km and kcat/Km do not agree
[1] = tested on: O=[N+]([O-])c1ccc(OP(=O)(O)O)cc1; assay: purified protein; settings: pH 5.6, 45 °C, printed kcat, Km and kcat/Km do not agree

Sequence of Pho16B (A0A3G1QTG4 1-376): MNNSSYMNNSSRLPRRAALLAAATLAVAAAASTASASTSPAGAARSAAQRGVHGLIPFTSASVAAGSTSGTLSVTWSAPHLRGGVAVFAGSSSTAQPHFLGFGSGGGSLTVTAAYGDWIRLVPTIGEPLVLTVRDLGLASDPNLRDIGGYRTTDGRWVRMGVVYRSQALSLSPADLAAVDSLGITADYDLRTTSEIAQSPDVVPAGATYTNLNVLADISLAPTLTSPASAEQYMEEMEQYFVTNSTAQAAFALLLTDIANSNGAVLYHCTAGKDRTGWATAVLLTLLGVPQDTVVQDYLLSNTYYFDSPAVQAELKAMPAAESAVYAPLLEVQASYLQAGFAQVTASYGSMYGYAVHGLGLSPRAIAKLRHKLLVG

Question: For Naphthyl phosphate, which Km (Pho16B) is on record?
Answer: The Km was 966 ± 180 µM.

Question: How did the Km [1] turn out when Pho16B (uncultured organism) was run?
Answer: Its Km is 1026 ± 140 µM.
